In patent US4265830A, “Naphthalenetetrayletrakis(sulfonylimino)-aryl disulfonic acids and salts thereof” (priority 1979, dated 1981):
Read-outs that look alike come from different tables or passages of the source.

Columns and labels:
activated human C1 = target: T1, activated human C1 (Homo sapiens, UniProt P09871); test: Test Code 026 (C1 inhibitor); assay type: biochemical; settings: activity in wells, twofold serial dilution assay; higher well number indicates higher activity
T1 sequence (P09871 16-437 limits assumed): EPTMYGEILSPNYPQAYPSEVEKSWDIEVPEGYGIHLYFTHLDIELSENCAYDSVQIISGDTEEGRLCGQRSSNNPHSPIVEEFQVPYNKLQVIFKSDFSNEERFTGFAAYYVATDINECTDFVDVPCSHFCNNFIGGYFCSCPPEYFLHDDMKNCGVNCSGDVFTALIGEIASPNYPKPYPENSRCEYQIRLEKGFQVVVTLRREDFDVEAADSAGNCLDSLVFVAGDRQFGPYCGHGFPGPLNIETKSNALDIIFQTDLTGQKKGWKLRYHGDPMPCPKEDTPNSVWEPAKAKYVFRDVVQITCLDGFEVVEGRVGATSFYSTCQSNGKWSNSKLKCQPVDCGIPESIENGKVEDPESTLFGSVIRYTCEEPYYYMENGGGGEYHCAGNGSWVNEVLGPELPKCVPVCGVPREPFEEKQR
T1 sequence (P09871 438-688 limits assumed): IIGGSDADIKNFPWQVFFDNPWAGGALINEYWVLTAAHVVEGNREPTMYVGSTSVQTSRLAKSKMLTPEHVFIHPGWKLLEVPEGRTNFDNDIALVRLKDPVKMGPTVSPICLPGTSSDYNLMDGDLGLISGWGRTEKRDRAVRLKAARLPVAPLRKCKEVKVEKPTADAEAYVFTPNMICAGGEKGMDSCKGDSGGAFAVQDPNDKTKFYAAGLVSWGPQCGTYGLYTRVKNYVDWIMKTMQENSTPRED
Description: (§1) An active inhibitor protects C2 from C1 and C4; (ii) Test Code 035 (C3-C9 inhibitor)--This test determines the ability of the late components of human complement (C3-C9) to lyse EAC 142 in the presence of appropriate dilutions of the test compound. An active inhibitor protects EAC 142 from lysis by human C3-C9; (iii) Test Code 036 (C-Shunt inhibitor)--In this test human erythrocytes rendered fragile are lysed in autologous serum via the shunt pathway activated by cobra venom factor in the presence of appropriate dilutions of the test compound. Inhibition of the shunt pathway results in failure of lysis; (iv) Forssman Vasculitis Test--Here, the well known complement dependent lesion, Forssman vasculitis, is produced in guinea pigs by intradermal injection of rabbit anti-Forssman antiserum. […] Percent inhibition is calculated by comparison with simultaneous controls. […]

[1] = system: late components of human complement (C3-C9); test: Test Code 035 (C3-C9 inhibitor), lysis of EAC 142; assay type: biochemical; settings: activity in wells, twofold serial dilution assay; higher well number indicates higher activity
Description: as §1

shunt pathway = test: Test Code 036 (C-Shunt inhibitor), lysis of human erythrocytes in autologous serum activated by cobra venom factor; assay type: cell-based; settings: activity in wells, twofold serial dilution assay; higher well number indicates higher activity
Description: as §1

complement activity = test: Guinea Pig Intraperitoneal Test (GPIP), serum complement activity; assay type: in vivo; settings: Cavia porcellus, ip, 200 mg./kg. i.p., vs simultaneous controls
Description: An active inhibitor protects C2 from C1 and C4; (ii) Test Code 035 (C3-C9 inhibitor)--This test determines the ability of the late components of human complement (C3-C9) to lyse EAC 142 in the presence of appropriate dilutions of the test compound. An active inhibitor protects EAC 142 from lysis by human C3-C9; (iii) Test Code 036 (C-Shunt inhibitor)--In this test human erythrocytes rendered fragile are lysed in autologous serum via the shunt pathway activated by cobra venom factor in the presence of appropriate dilutions of the test compound. Inhibition of the shunt pathway results in failure of lysis; (iv) Forssman Vasculitis Test--Here, the well known complement dependent lesion, Forssman vasculitis, is produced in guinea pigs by intradermal injection of rabbit anti-Forssman antiserum. The lesion is measured in terms of diameter, edema and hemorrhage and the extent to which a combined index of these is inhibited by prior intraperitoneal injection of the test compound at 200 mg./kg. is then reported, unless otherwise stated; (v) Forssman Shock Test--Lethal shock is produced in guinea pigs by an i.v. injection of anti-Forssman antiserum and the harmonic mean death time of treated guinea pigs is compared with that of simultaneous controls; (vi) Complement Level Reduction Test--In this test, the above dosed guinea pigs, or others, are bled for serum and the complement level is determined in undiluted serum by the capillary tube method of U.S. Pat. No. 3,876,376 and compared to undosed control guinea pigs; (vii) Cap 50 Test--Here, appropriate amounts of the test compound are added to a pool of guinea pig serum in vitro, after which the undiluted serum capillary tube assay referred to above is run. The concentration of compound inhibiting 50% is reported; (viii) Guinea Pig Intraperitoneal Test (GPIP)--Guinea Pigs weighing about 300 g. are dosed intraperitoneally (i.p.) with 200 mg./kg. of the test compound dissolved in saline and adjusted to pH 7-8. […] Percent inhibition is calculated by comparison with simultaneous controls. […]

In the case of O=S(=O)([O-])c1cc(NS(=O)(=O)c2cc(S(=O)(=O)Nc3cc(S(=O)(=O)[O-])cc(S(=O)(=O)[O-])c3)c3cc(S(=O)(=O)Nc4cc(S(=O)(=O)[O-])cc(S(=O)(=O)[O-])c4)cc(S(=O)(=O)Nc4cc(S(=O)(=O)[O-])cc(S(=O)(=O)[O-])c4)c3c2)cc(S(=O)(=O)[O-])c1.[Na+].[Na+].[Na+].[Na+].[Na+].[Na+].[Na+].[Na+] [5,5',5",5"'-[1,3,5,7-Naphthalenetetrayltetrakis(sulfonylimino)]tetrakis-1,3-benzenedisulfonic acid, octasodium salt], the “Cl 026* Wells” value (activated human C1) is reported as “+10 Wells”, the “C-Late 035* Wells” value [1] is reported as “+1 Wells” and the “Shunt Inhibition 036* Wells” value (shunt pathway) is reported as “+7 Wells”. It also gave an inhibition at 200 mg/kg (complement activity; 0.5 h, serum 30 minutes after injection, read-out: In Vivo Activity (Guinea Pig) % Inhibition Intraperitoneal, 30 minutes) of -62%, an inhibition at 200 mg/kg (complement activity; 1 h, serum 60 minutes after injection, read-out: In Vivo Activity (Guinea Pig) % Inhibition Intraperitoneal, 60 minutes) of -59% and an inhibition at 200 mg/kg (complement activity; 2 h, serum 120 minutes after injection, read-out: In Vivo Activity (Guinea Pig) % Inhibition Intraperitoneal, 120 minutes) of -81%.
